# Molecular target: Fibroblast growth factor receptor 2 (Homo sapiens, UniProt P21802)
# Experiment: FGFR2 Biochemical Caliper Assay
# Method: Compounds of the present invention were also tested in a FGFR2 Biochemical Caliper Assay. Compounds were prepared in 10 mM DMSO solution and serially diluted into 11 concentrations by 3-fold dilution. […] 5 uL of ATP solution (100 uM) was added to start the reaction and the plate was incubated for 90 minutes, then 70 uL of stopping buffer (0.5M EDTA) was added to terminate the reaction. Each well was analyzed using EZ reader.
# Chain of Fibroblast growth factor receptor 2 (P21802 whole entry): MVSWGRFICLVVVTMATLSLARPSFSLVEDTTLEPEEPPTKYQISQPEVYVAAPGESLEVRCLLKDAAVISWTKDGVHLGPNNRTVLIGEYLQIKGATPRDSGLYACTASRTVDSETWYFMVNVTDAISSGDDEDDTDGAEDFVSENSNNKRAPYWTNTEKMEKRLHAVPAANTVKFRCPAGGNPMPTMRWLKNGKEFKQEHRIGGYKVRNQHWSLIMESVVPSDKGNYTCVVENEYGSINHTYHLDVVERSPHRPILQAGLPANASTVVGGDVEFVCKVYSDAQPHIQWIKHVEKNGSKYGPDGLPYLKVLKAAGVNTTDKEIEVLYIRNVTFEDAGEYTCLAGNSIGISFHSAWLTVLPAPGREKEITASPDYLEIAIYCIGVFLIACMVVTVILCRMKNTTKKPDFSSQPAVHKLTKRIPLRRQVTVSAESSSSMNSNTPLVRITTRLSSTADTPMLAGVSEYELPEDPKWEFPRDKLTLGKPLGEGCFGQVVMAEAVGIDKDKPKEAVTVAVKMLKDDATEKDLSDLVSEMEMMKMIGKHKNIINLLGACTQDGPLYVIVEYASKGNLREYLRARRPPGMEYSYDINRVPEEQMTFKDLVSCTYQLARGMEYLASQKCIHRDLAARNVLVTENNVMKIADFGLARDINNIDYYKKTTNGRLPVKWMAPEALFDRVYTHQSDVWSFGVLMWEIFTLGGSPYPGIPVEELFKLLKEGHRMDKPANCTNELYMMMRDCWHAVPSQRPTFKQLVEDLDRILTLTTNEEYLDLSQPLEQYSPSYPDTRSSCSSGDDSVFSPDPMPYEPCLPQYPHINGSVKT
row,IC50 [nM],Structure (SMILES)
1,< 100,CC#CC(=O)Nc1ccc(-c2c(-c3ccc(Oc4cccc(C)n4)c(OC)c3)c3c(N)ncnc3n2C)cc1
2,< 100,"C=CC(=O)Nc1ccc(-c2c(-c3ccc(Oc4ccccc4)c(OC)c3)c3c(N)ncnc3n2C)cc1 [US11780845, Example 12]"
3,< 100,"CC#CC(=O)N(C)c1ccc(-c2c(-c3ccc(Oc4cccc(C)n4)c(OC)c3)c3c(N)ncnc3n2C)cc1 [US11780845, Example 26]"
4,< 100,"C=CC(=O)Nc1ccc(-c2c(-c3ccc(Oc4cccc(C)c4)c(OC)c3)c3c(N)ncnc3n2C)cc1 [US11780845, Example 27]"
